The values below come from US8791107B2, “N-substituted oxazinopteridines and oxazinopteridinones” (Takeda Pharmaceutical Company Limited, priority 2011, dated 2014).

For the experiment, the target named is T1, PI3Kδ (Homo sapiens, UniProt O00329).
T1 construct: The protein is full length and co-expressed with untagged PIK3R1; GST; purchased Invitrogen PV5274
T1 sequence (O00329 whole entry): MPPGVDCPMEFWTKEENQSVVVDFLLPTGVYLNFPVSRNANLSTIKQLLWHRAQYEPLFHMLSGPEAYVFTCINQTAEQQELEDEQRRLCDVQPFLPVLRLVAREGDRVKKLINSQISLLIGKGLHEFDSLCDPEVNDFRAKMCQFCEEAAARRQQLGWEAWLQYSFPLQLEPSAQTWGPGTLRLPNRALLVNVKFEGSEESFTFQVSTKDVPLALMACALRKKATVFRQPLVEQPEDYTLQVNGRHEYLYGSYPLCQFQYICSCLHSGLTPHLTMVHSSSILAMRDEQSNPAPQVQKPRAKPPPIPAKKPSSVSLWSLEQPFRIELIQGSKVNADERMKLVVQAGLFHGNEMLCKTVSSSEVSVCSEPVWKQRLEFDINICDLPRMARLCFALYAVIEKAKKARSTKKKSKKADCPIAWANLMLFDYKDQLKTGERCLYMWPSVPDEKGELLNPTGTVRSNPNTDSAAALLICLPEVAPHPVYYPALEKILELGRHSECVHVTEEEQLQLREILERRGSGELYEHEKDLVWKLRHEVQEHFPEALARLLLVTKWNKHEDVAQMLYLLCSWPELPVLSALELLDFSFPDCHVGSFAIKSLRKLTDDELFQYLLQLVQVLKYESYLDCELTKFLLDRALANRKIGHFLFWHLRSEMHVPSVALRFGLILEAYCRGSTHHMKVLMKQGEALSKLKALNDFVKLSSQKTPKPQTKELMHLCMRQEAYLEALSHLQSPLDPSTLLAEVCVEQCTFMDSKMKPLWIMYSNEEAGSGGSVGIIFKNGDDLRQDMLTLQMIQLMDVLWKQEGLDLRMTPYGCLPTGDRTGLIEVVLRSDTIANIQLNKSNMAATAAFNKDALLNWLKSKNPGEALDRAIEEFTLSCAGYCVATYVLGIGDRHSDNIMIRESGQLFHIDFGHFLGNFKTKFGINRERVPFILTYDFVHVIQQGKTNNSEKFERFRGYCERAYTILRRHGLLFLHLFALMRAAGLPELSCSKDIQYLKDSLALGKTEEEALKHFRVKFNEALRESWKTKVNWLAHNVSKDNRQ
T1 sequence (P27986 whole entry partner): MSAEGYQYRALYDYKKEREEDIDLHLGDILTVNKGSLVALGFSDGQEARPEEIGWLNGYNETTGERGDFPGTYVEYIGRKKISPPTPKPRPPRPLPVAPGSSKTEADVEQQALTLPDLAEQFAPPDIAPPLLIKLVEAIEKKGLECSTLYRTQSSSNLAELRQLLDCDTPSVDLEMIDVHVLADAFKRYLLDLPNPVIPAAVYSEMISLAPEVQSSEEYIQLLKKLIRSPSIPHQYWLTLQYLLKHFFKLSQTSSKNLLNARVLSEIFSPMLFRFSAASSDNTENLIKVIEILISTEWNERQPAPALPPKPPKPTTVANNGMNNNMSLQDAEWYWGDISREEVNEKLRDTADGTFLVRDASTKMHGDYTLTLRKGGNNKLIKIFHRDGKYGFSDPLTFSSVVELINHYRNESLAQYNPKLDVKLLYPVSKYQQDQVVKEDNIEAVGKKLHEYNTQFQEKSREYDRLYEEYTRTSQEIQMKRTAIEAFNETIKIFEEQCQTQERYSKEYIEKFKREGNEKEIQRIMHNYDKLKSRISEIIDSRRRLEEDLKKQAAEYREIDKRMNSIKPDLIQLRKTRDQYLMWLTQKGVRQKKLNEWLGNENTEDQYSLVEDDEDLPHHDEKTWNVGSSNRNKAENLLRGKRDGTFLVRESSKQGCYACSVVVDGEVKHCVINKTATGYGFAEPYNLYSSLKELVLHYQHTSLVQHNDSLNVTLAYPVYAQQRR
Nature of the experiment: PI3Kδ inhibition, modified PIK3CD Adapta TR-FRET assay. The conditions noted are these: recombinant GST-tagged full length PIK3CD co-expressed with PIK3R1 (p85α); 2 μM ATP, 50 μM PIP2; read-out: PI3Kδ Inhibition (pIC50) (converted). The format is biochemical. Put shortly: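 Inhibition was derived from % conversion against positive and negative controls, with ADP read by Adapta Eu-antibody/tracer TR-FRET. Room-temperature reactions used GST-PIK3CD/p85α in HEPES pH 7.5 buffer (MgCl2, EGTA, NaCl, CHAPS, fresh DTT), 1% DMSO final and 12 concentrations. They were initiated by adding 2 μM ATP/50 μM PIP2 solution.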
(In general: TR-FRET usually uses a lanthanide donor and a delayed reading to cut background.)
On to `Cc1nc(-c2cccc3[nH]ccc23)nc2c1N(CC1CC1)CC1COCCN21` (stereo not shown) [Example 27, 5-(cyclopropylmethyl)-2-(1H-indol-4-yl)-4-methyl-5,6,6a,7,9,10-hexahydro-[1,4]oxazino[3,4-h]pteridine], for which the IC50 is 0.251 µM. The value for `COc1cc(-c2ncc3c(n2)N2CCOCC2CN3)ccn1` (stereo not shown) [Example 14, 2-(2-methoxypyridin-4-yl)-5,6,6a,7,9,10-hexahydro-[1,4]oxazino[3,4-h]pteridine] was 5.01 µM; that for `c1cc(-c2ncc3c(n2)N2CCOCC2CN3)c2cc[nH]c2c1` (stereo not shown) [Example 2, 2-(1H-indol-4-yl)-5,6,6a,7,9,10-hexahydro-[1,4]oxazino[3,4-h]pteridine] was 0.0501 µM. As for `CS(=O)(=O)c1ccc(CN2C(=O)C3COCCN3c3nc(-c4cnc(N)nc4)ncc32)cc1` (stereo not shown) [Example 125, 2-(2-aminopyrimidin-5-yl)-5-(4-(methylsulfonyl)benzyl)-6a,7,9,10-tetrahydro-[1,4]oxazino[3,4-h]pteridin-6(5H)-one], the figure is 0.01 µM.

Turning to `CS(=O)(=O)c1ccc(CN2C(=O)C3COCCN3c3nc(-c4ccnc5[nH]ccc45)ncc32)cc1` (stereo not shown) [Example 155, 5-(4-(methylsulfonyl)benzyl)-2-(1H-pyrrolo[2,3-b]pyridin-4-yl)-6a,7,9,10-tetrahydro-[1,4]oxazino[3,4-h]pteridin-6(5H)-one], the IC50 is 0.0251 µM. The value for `CC(C)(C)OC(=O)N[C@H]1CC[C@H](CN2CC3COCCN3c3nc(-c4cccc5[nH]ccc45)ncc32)CC1` (stereo partly shown) [Example 57, tert-butyl ((1r,4r)-4-((2-(1H-indol-4-yl)-6a,7,9,10-tetrahydro-[1,4]oxazino[3,4-h]pteridin-5(6H)-yl)methyl)cyclohexyl)carbamate] was 0.794 µM; that for `CC(=O)Nc1ccccc1-c1ncc2c(n1)N1CCOCC1C(=O)N2Cc1ccc(S(C)(=O)=O)cc1` (stereo not shown) [Example 104, N-(2-(5-(4-(methylsulfonyl)benzyl)-6-oxo-5,6,6a,7,9,10-hexahydro-[1,4]oxazino[3,4-h]pteridin-2-yl)phenyl)acetamide] was 0.2 µM. Take `CNC(=O)Nc1ccc(-c2ncc3c(n2)N2CCOCC2C(=O)N3CC2CC2(F)F)cc1` (stereo not shown) [Example 93, 1-(4-(5-((2,2-difluorocyclopropyl)methyl)-6-oxo-5,6,6a,7,9,10-hexahydro-[1,4]oxazino[3,4-h]pteridin-2-yl)phenyl)-3-methylurea]: the IC50 was 0.00501 µM. As for `O=C(CCN1CC2COCCN2c2nc(-c3cccc4[nH]ccc34)ncc21)NCc1ccco1` (stereo not shown) [Example 34, 3-(2-(1H-indol-4-yl)-6a,7,9,10-tetrahydro-[1,4]oxazino[3,4-h]pteridin-5(6H)-yl)-N-(furan-2-ylmethyl)propanamide], the figure is 0.0126 µM. The value for `O=C(CN1C[C@@H]2COCCN2c2nc(-c3ccc(CO)cc3)ncc21)NCC1CCOCC1` [Example 214, (R)-2-(2-(4-(hydroxymethyl)phenyl)-6a,7,9,10-tetrahydro-[1,4]oxazino[3,4-h]pteridin-5(6H)-yl)-N-((tetrahydro-2H-pyran-4-yl)methyl)acetamide] was 2 µM; that for `COc1ccc2c(-c3ncc4c(n3)N3CCOCC3C(=O)N4Cc3ccc(S(C)(=O)=O)cc3)c[nH]c2c1` (stereo not shown) [Example 136, 2-(6-methoxy-1H-indol-3-yl)-5-(4-(methylsulfonyl)benzyl)-6a,7,9,10-tetrahydro-[1,4]oxazino[3,4-h]pteridin-6(5H)-one] was 0.501 µM. The value for `CCc1nnc(CN2C[C@@H]3COCCN3c3nc(-c4cc(CO)ccc4F)ncc32)o1` [Example 179, (R)-(3-(5-((5-ethyl-1,3,4-oxadiazol-2-yl)methyl)-5,6,6a,7,9,10-hexahydro-[1,4]oxazino[3,4-h]pteridin-2-yl)-4-fluorophenyl)methanol] was 0.0501 µM. As for `O=C(CN1C[C@@H]2COCCN2c2nc(-c3cccc(OC(F)F)c3)ncc21)NCC1CCOCC1` [Example 217, (R)-2-(2-(3-(difluoromethoxy)phenyl)-6a,7,9,10-tetrahydro-[1,4]oxazino[3,4-h]pteridin-5(6H)-yl)-N-((tetrahydro-2H-pyran-4-yl)methyl)acetamide], the IC50 is 0.794 µM.
